Laboratory results published in patent US20100249138A1, “MPZP: A SMALL MOLECULE CORTICOTROPIN-RELEASING FACTOR TYPE 1 RECEPTOR (CRF1) ANTOGONIST” (priority 2007, published 2010).
Entries after “also recorded” stand apart in the source; their conditions may differ.

Legend:
[1] = system: 62 other receptors, transporters, and ion channels; assay: Novascreen side-effect potential screening assay (GEN SEP I panel); type: binding; conditions: 10 μM
Description: Specificity of MPZP for other receptor, transporter, and ion channel targets was determined at 1 and 10 μM concentrations via a commercial screening service (Novascreen, GEN SEP I panel, Hanover, Md.).

[2] = system: defensive burying model of active anxiety-like behavior; assay: Defensive burying test (Study 1); type: in vivo, rat
From the text: The defensive burying test was used to assess effects of MPZP on anxiety-like behavior [Treit et al., Pharmacol. Biochem. Behay. (1981) 15:619-626; De Boer et al., Eur. J. Pharmacol. (2003) 463:145-161]. This model has been validated by anxiolytic and anxiogenic compounds, which decrease and increase defensive burying behavior, respectively [Korte et al., Physiol. Behay. (1994) 56:115-120; De Boer et al., Eur. J. Pharmacol. (2003) 463:145-161]. For two consecutive days before defensive burying testing, animals were acclimated to the testing apparatus by placing them for 45 minutes in the testing cage (a polycarbonate rat housing cage with 2 cm of bedding covering the floor and a small hole centered on a long dimension of the cage 1 inch above the bedding to accommodate the shock probe on the subsequent test day). On the day of testing, animals were brought into the anteroom at least 2 hours before testing began. Subjects were subcutaneously pretreated with MPZP (0, 5, 20 mg/kg) in a between-subjects design 1 hour before their test session. For testing, animals were placed individually in the test cage, and a shock probe connected to a Coulbourn precision shocker (model E13-01, Coulbourn Instruments, Allentown, Pa.) delivered one 1.5 mA shock (lasting <1 s) upon contact. As soon as the animal was shocked (verified by a startle response), the shock current was deactivated, and the 10 minute test began. Contact with the shock probe under these conditions results in the rat displacing bedding material with treading-like movements of the forepaws and shoveling movements of the head, often directed toward the shock probe. Latency to the first display of burying behavior and time spent burying (in four 2.5 minute bins throughout the 10 minute test) were assessed [Korte et al., Physiol. Behay. (1994) 56:115-120]. […] The effect of MPZP on defensive burying behavior (latency to first bury and burying time) were analyzed by analysis of variance (ANOVA), in which Dose was a between-subjects factor and Time bin was a repeated measure for duration of burying.

[3] = system: animal model of alcohol dependence; assay: Operant alcohol and water self-administration in alcohol vapor-dependent and nondependent rats (Study 2); type: in vivo, rat; conditions: for alcohol self-administration (g/kg intake): 0, 5, 10, 20 mg/kg
From the text: The effect of MPZP on drinking behavior was studied in an established animal model of alcohol dependence. […] (2006) 26:11324-11332; see also Roberts et al., Alcohol Clin. Exp. Res. (1996) 20:1289-1298; Overstreet et al., Alcohol Clin. Exp. Res. (2002) 26:1259-1268; Rimondini et al., FASEB J. (2002) 16:27-35; Valdez et al., Alcohol Clin. Exp. Res. (2002) 26:1494-1501 for related models].
Animals were permitted to self-administer alcohol or water orally in a concurrent, two-lever, free-choice contingency. A continuous reinforcement (fixed ratio-1) schedule was used in which each lever press was reinforced. Animals acquired alcohol self-administration using a variation of the previously described saccharin fading free-choice operant conditioning protocol [Samson et al., Alcohol Clin. Exp. Res. (1986) 10:436-442].
The present procedure culminates in pharmacologically relevant levels of alcohol self-administration, as defined by blood alcohol levels (BALs), in nondependent animals with limited access to alcohol over a 6-week period [Roberts et al., Alcohol Clin. Exp. Res. (1999) 23:1151-1157]. The modified procedure in the present study utilized a sweetened solution (“supersac”) containing 3% glucose and 0.125% saccharin (Sigma, St. Louis, Mo.) instead of water restriction and 0.2% saccharin to initiate and maintain operant responding [Funk et al., J. Neurosci. (2006) 26:11324-11332].
Animals respond for the sweetened solution within 1-2 training sessions, making water restriction unnecessary. Operant sessions during training were conducted 5 days per week between 0900 and 1500 (lights on at 0600). Operant sessions were 30 minutes in duration, except during the initial days of training in which sessions lasted up to 2 hours to permit acquisition of responding for the sweetened solution. Alcohol (10% w/v) then was added to the sweetened solution, and once mean responding stabilized (around one week) the glucose was removed from the solution, leaving only 0.125% saccharin and 10% w/v ethanol.
Animals then were maintained on 10% w/v ethanol for at least 3 weeks, and stable responders (±25% across three consecutive sessions) were evenly divided into two groups matched for baseline responding and exposed to intermittent ethanol vapors (dependent) or air (nondependent) as described below. A total of 16 rats (dependent, n=8; nondependent, n=8) were used for this experiment.
The self-administration system comprised test chambers (Coulbourn Instruments, Allentown, Pa.) contained within wooden sound-attenuated ventilated cubicles. The test chambers were equipped with two retractable levers located 4 cm above the grid floor and 4.5 cm to either side of a small stainless steel receptacle containing two drinking cups. […] Tap water was delivered to one dish, and the experimental solution (e.g., sweetened solution or alcohol) was delivered to the other dish. Fluid delivery and recording of operant self-administration were controlled by a computer. Lever presses were not recorded during the 0.5 second inter-response time-out interval when solution was being delivered.
A recent modification of the alcohol dependence model was made to reflect the natural progression of alcohol dependence in which alcohol exposure occurs in a series of extended exposures followed by periods of withdrawal [O′Dell et al., Alcohol Clin. Exp. Res. (2004) 28:1676-1682]. Chronic exposure to intermittent alcohol vapor exposure elicits even higher alcohol self-administration than continuous vapor (Ibid.), and the intermittent procedure therefore was used to induce dependence in trained animals in the present study. Vapors were delivered on a 14 hours on/10 hours off schedule for 4 weeks before post-vapor testing began.
Beginning 4 weeks after the onset of vapor exposure, post-vapor alcohol self-administration testing was conducted 2 times per week during acute withdrawal (6-8 hours after cessation of daily vapor exposure). […]

Compound: COCCN(CCOC)c1cc(C)nc2c(-c3ccc(OC)cc3C)c(C)nn12 [MPZP, N,N-bis(2-methoxyethyl)-3-(4-methoxy-2-methylphenyl)-2,5-dimethyl-pyrazolo[1,5-a]pyrimidin-7-amine]
- activity at 62 other receptors, transporters, and ion channels [1]: did not exhibit high activity
- total duration of defensive burying behavior ([2]; 0, 5, 20 mg/kg s.c., systemic pretreatment): dose-dependently reduced; also recorded: reduced defensive burying time
- duration of burying across the 10-minute observation period ([2]; 20 mg/kg s.c., 1 hour before test, vs vehicle): significantly reduced
- latency to start burying ([2]; 5 and 20 mg/kg s.c., 1 hour before test, vs vehicle): increased the latency to start burying
- ED50 ([3]; Rattus norvegicus, sc, dependent animals, acute withdrawal (6-8 hours), s.c. 1 hour before 30 minute session, read-out: ED50, reduction of alcohol self-administration (sigmoidal dose-response fit)): 10.7 mg/kg
- alcohol self-administration (g/kg intake) ([3]; dependent animals, 20 mg/kg vs vehicle): dose-dependently reduced; also recorded: significantly reduced
- alcohol responses ([3]; dependent animals, 5 mg/kg): 72±14
- alcohol responses ([3]; dependent animals, 10 mg/kg): 70±7
- alcohol responses ([3]; dependent animals, 20 mg/kg): 47±7
- water self-administration (responses) ([3]; dependent or nondependent animals): no effect
- alcohol self-administration (g/kg intake) ([3]; nondependent animals): not nondependent animals; also recorded: no effect
- alcohol responses ([3]; nondependent animals, 5 mg/kg): 37±5
- alcohol responses ([3]; nondependent animals, 10 mg/kg): 32±5
- alcohol responses ([3]; nondependent animals, 20 mg/kg): 33±4
